The test system of data set [1] is secretion of apo-B from HepG2 cells. Nature of the data set: Apo-B secretion from HepG2 cells. It counts as cell-based, human. The note with it: for nature of interaction with ethanol extract of HL: non-linear blending curves, combined total doses 30-250 ug/ml, FIGS. 9-11, 14-35; for nature of interaction with berberine (BBR): non-linear blending, combined total dose 50 ug/ml, FIGS. 36-40. The protocol: In the Examples to follow, Apo-B secretion experiments were carried out on HepG2 cells. These cells were obtained from the American Type Culture Collection (cat #: ATCC HB-8065). HepG2, a human hepatoblastoma-derived cell line, is one of the most commonly used models to study lipoprotein uptake and metabolism in intact human liver. These cells secrete most of the plasma proteins secreted from human liver cells including apolipoprotein-B [38]. In addition, most of the enzymes involved in intra- and extracellular cholesterol metabolism including LCAT, ACAT, HMG-CoA reductase and Cholesterol 7-α-hydroxylase are expressed in these cells.
The effects of HL, KDC and hawthorn extracts, when used in isolation as well as in combination, on the secretion of apo-B from human hepatoma cells, Hep-G2 was determined. Water extracts of Coptis chinesis (Huanglian) and Ku Ding Cha (Ilex kudingcha) were developed and tested; results are indicated in FIGS. 1 and 2, respectively. Ethanolic extracts of Coptis chinesis (Huanglian) and ethyl acetate extracts of Ku Ding Cha (Ilex kudingcha) were also developed and hawthorn extract was used for these experiments shown in FIGS. 3-12.
Additional experiments were subsequently carried out to confirm the synergism between the HL and KDC extracts. Three commonly used approaches including non-linear blending, isobologram and combination index were utilized to determine this interaction.
Determination of a drugs combination index (CI) provides quantitative information of the nature of drug interaction. It is calculated through the following equation: CI=(CA,X/ICX,A)+(CB,X/ICX,B) CA,X and CB,X, are the concentrations of drug A and drug B used in the combination to achieve x % drug effect. ICX,A and ICX,B are the concentrations for single agents to achieve the same effect. A CI of less than, equal to, and more than 1 indicates synergy, additivity, and antagonism, respectively.

The target in data set [2] is acyl-CoA: cholesterol acyltransferase (ACAT). The note with it: cited from earlier work.
Data set [3] has as its target T1, squalene synthase (Homo sapiens, UniProt P37268).
T1 sequence (P37268 1-417): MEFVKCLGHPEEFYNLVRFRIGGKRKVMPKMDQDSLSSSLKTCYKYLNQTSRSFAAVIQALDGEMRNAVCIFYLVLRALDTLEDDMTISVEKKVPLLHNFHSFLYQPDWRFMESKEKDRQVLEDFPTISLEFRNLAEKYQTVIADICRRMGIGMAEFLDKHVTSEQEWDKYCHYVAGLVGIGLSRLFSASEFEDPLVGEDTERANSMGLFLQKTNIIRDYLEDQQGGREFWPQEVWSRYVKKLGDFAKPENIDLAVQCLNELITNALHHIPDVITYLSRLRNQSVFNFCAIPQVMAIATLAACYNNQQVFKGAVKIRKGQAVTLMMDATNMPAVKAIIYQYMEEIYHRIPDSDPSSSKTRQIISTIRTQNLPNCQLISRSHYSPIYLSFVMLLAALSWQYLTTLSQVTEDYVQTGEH
As to conditions: cited from earlier work.

The test system of data set [4] is mice. The note with it: mouse, in vivo; cited from earlier work.
The target of data set [5] is T2, CYP2E1 (Homo sapiens, UniProt P05181).
T2 construct: incubation of human liver microsomes with BBR; from tissue; host or cells: human liver microsomes
The note with it: human liver microsomes, 20 μM; cited from earlier work. (In general: Microsomes from liver hold many membrane-bound enzymes, among them those of drug oxidation.)

For data set [6] the following is noted: oral, 100 mg/day for 2 weeks; cited from earlier work.
In data set [7] the test system is Hep G2 cells. As to conditions: cited from earlier work.
The target in data set [8] is T3, CYP3A4 (Homo sapiens, UniProt P08684).
T3 construct: incubation of human liver microsomes with BBR; from tissue; host or cells: human liver microsomes
The note with it: human liver microsomes, 20 μM; cited from earlier work.

Data set [9] relates to L929 cells. The note with it: cited from earlier work.
In data set [10] the target is T4, CYP2D6 (Homo sapiens, UniProt P10635).
T4 construct: incubation of human liver microsomes with BBR; from tissue; host or cells: human liver microsomes
As to conditions: human liver microsomes, 20 μM; cited from earlier work.

Data set [11] deals with 3T3-L1 adipocytes. The note with it: cited from earlier work.
The test system of data set [12] is LDL receptors. As to conditions: Hep G2 cells; cited from earlier work.
The conditions of data set [13]: 1 g/day for 3 months; cited from earlier work.
Data set [14] deals with nucleoside triphosphate hydrolase (NTPase). The note with it: cited from earlier work.

Here are results for seven molecules from US8642094B2, “Synergistic pharmaceutical composition, method of making same and use of same” (Afexa Life Sciences Inc., priority 2008, dated 2014).

T3 sequence (P08684 whole entry): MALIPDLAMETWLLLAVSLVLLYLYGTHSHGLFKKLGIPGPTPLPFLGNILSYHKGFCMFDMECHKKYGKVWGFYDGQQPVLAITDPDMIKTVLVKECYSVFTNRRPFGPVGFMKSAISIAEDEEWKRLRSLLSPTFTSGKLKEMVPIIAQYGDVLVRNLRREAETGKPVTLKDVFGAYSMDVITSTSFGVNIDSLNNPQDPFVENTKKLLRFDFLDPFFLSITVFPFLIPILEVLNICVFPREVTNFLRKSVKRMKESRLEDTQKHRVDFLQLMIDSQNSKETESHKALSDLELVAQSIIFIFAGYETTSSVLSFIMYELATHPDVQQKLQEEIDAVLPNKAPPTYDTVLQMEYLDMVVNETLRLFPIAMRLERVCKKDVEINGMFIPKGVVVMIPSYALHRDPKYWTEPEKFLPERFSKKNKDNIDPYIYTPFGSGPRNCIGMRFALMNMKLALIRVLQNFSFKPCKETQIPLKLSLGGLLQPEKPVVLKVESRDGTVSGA
T2 sequence (P05181 whole entry): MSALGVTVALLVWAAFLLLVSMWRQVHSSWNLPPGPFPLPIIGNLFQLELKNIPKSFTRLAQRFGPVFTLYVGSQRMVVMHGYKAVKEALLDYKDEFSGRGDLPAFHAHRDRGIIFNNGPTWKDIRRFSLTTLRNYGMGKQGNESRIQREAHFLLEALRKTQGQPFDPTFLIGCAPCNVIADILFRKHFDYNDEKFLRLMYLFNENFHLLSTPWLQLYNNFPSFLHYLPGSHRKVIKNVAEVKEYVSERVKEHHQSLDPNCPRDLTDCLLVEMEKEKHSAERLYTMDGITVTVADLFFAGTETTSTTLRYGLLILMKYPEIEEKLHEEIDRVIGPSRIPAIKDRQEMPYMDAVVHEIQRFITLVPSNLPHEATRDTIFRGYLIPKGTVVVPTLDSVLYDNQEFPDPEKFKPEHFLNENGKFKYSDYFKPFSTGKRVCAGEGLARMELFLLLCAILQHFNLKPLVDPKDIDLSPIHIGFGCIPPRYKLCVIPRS
T4 sequence (P10635 whole entry): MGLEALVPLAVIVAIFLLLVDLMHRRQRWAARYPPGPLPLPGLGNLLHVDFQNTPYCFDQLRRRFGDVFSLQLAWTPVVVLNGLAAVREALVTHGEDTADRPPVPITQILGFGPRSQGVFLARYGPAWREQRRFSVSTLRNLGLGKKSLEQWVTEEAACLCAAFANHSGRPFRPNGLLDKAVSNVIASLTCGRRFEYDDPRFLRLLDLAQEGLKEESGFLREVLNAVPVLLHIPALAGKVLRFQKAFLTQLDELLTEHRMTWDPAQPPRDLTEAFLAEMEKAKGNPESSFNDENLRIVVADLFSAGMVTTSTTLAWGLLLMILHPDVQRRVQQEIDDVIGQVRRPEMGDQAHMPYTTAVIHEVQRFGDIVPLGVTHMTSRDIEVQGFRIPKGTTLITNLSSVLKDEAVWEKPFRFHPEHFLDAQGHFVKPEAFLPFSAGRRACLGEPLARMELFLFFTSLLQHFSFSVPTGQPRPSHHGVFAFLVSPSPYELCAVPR

Consider `C=C(C)[C@@H]1CC[C@]2(CO)CC[C@]3(C)[C@H](CC[C@@H]4[C@@]5(C)CC[C@H](O)C(C)(C)[C@@H]5CC[C@]43C)[C@@H]12` [betulin, lup-20[29]-ene-3β,28-diol], for which, in data set [1], the “nature of interaction with ethanol extract of HL” value (“nature of interaction … of HL” below) is recorded as “interacting with HL” and the “nature of interaction with berberine (BBR)” value (shortened to “nature of interaction … (BBR)”) is reported as “synergism”. For the same molecule, in data set [2], the concentration for half-maximal inhibition (IC50) – broadly, the concentration needed to halve the response being measured – was 83 µM.

Lipedoside B-III: the IC50 in data set [2] is 269 µM.

Regarding `O=C(/C=C/c1ccc(O)c(O)c1)O[C@@H]1C[C@](O)(C(=O)O)C[C@@H](O)[C@H]1O` [Chlorogenic acid], in data set [1], the “nature of interaction … of HL” value is given as “synergism” and the “nature of interaction … (BBR)” value was “synergism”. Also, in data set [3], the half-inhibitory concentration (IC50) was 0.1 µM.

Regarding `COc1ccc2cc3[n+](cc2c1OC)CCc1cc2c(cc1-3)OCO2` [berberine], the lethal dose result in data set [4] is recorded as “exceeding 15 mg/Kg”. Moreover, the CYP2E1 activity result in [5] was “decrease the activities”. In data set [6], the “reduction of serum LDL-cholesterol levels” value is “up to 30%” and the “reduction of serum total cholesterol levels” value is “up to 30%”. For the same molecule, the “synthesis of cholesterol and triglyceride in the cells” value in [7] is “inhibit the synthesis of cholesterol and triglyceride”. The CYP3A4 activity entry in data set [8] was “decrease the activities”. In addition, the dose inducing cytotoxicity result in data set [9] is given as “greater than 40 μg/ml”. The CYP2D6 activity entry in data set [10] is reported as “decrease the activities”. Also, the “differentiation of 3T3-L1 adipocytes” value in data set [11] was “inhibit differentiation”. Further, in [12], the “expression of LDL receptors” value is “increases the expression of LDL receptors”. Further, in data set [13], the “reduction of LDL-cholesterol” value was 25%, the “reduction of serum cholesterol concentrations” value is given as 29% and the reduction of triglycerides is 35%.

For the molecule `COc1cc2c(cc1OC)-c1cc3ccc(OC)c(OC)c3c[n+]1CC2` [Palmitine chloride, palmitine chloride], the “nature of interaction … (BBR)” value in data set [1] is recorded as “interact synergistically”.

As to `C=C(C)[C@@H]1CC[C@]2(C)CC[C@]3(C)[C@H](CC[C@@H]4[C@@]5(C)CC[C@H](O)C(C)(C)[C@@H]5CC[C@]43C)[C@@H]12` [Lupeol, 3β-Hydroxy-20(29)-lupene], in data set [1], the “nature of interaction … of HL” value is listed as “interacting with HL” and the “nature of interaction … (BBR)” value is “synergism”. Moreover, in [2], the IC50 is 48 µM.

Turning to `C[C@H]1[C@H](C)CC[C@]2(C(=O)O)CC[C@]3(C)C(=CC[C@@H]4[C@@]5(C)CC[C@H](O)C(C)(C)[C@@H]5CC[C@]43C)[C@H]12` [ursolic acid, 3β-Hydroxy-12-ursen-28-ic acid], the results for the IC50 in data set [14] and in data set [2] were 0.6 µM and 58.8 µM, respectively. Moreover, in data set [1], the “nature of interaction … of HL” value is given as “interacting with HL”. Besides, the “nature of interaction … (BBR)” value in [1] is “synergism”.
